# Where “and” joins values, the source holds several entries; their conditions need not be identical. Equal entries are not always repeated.
# What was measured:
# GWSS = details: cited from earlier work; for efficacy against GWSS (CDFA nursery shipping protocol list): in vivo; for speed of activity against GWSS: tested over several weeks, Redak and Bethke
# [1] = system: Draeculacephala crassicornis; details: topical, substrate and vapor treatments; cited from earlier work
# [2] = system: Homalodisca coagulata females; assay: Example 4: mortality of JH analog-treated field-collected gravid females; assay type: in vivo; details: 10 days post-treatment, fifteen females per treatment
# Method: The treatment rates for all three: methoprene, kinoprene, and hydroprene are listed below.
# This example summarizes two ongoing tests involving field-collected gravid females and eggs oviposited less than 24 hours prior to treatment. […] After eclosion the neonates will be held on host plants until death or successful development to the second instar, which ever occurs first.
# Fifteen females were used for each treatment. […] The females will be dissected to determine if there are sub-lethal effects of the JH analogs on the reproductive system.
# H. coagulata = assay: Example 2: newly-eclosed adult females treated with compound, dissection after 36 days; assay type: in vivo, Homalodisca coagulata
# Method: (§1) As described in Examples 1 and 2, the inventors topically applied methoprene in an aqueous solution to GWSS females that were: 1) over-wintering in reproductive diapause or 2) females that were newly eclosed adults and not yet reproductively active. […] Untreated females ordinarily will begin reproductive cycles 10-12 days post eclosion.
# Seven newly eclosed adult female H. coagulata were treated with the compound. The solution was applied with an aerosol device until individuals were noticeable wet. After treatment, female were placed into a wooden 1 m-screened cage that was provisioned with crape myrtle, eastern saltbush, and soybean. Five males of unknown ages were added to the cage. Female were dissected after 36 days. Males were discarded.
# GWSS nymphs = assay: Treatment of GWSS nymphs; assay type: in vivo, Homalodisca coagulata
# [3] = system: egg parasitoids, Gonatocerus spp.; assay: Impact on egg parasitoids; details: non-target Gonatocerus spp.
# GWSS females = assay: Treatment of reproductively-active females; assay type: in vivo, Homalodisca coagulata; details: following weeks of evaluation
# [4] = system: Homalodisca coagulata (Say); assay: Example 1: females in diapause sprayed with compound, oviposition and dissection of reproductive system; assay type: in vivo
# From the text: as §1
# Ten female Homalodisca coagulata (Say) were sprayed until visibly wet with the candidate compound. They were then placed into a wooden 1 m screened cage that was provisioned with five males and glabrous soybean, Glycine max (L.) A similar untreated control cage was also set up with females sprayed with distilled water. All leafhoppers were taken from a greenhouse culture and were in the process of terminating winter reproductive diapause. Females were checked daily for the presence of brochosomes and plants were checked for egg masses. Cages were in a greenhouse maintained at 32° C. and equipped with artificial lighting for a 14:10 photoperiod. Surviving females were dissected after thirty days and their reproductive status was evaluated.
# [5] = treatment A: 1/100 of recommended dose
# [6] = treatment B: 1/10 of recommended dose
# [7] = treatment D: 10× recommended dose
# [8] = newly eclosed adult females, one value per female, 36 days post-treatment
# [9] = treated diapausing females, one value per surviving female, dissected after thirty days
smiles,measurement,setting,value
Cc1c(COC(=O)[C@@H]2[C@H](/C=C(\Cl)C(F)(F)F)C2(C)C)cccc1-c1ccccc1 (racemic) [bifenthrin],efficacy against GWSS (CDFA nursery shipping protocol list),GWSS,some efficacy
"CC(COc1ccc(Oc2ccccc2)cc1)Oc1ccccn1 (racemic) [pyriproxifen, 4-phenoxyphenyl (RS)-2-(2-pyridyloxy)propyl ether]",speed of activity against GWSS,GWSS,too slow to be useful for eradication purposes
COC(=O)C=C(C)CCC=C(C)CCC1OC1(C)C (stereo not shown) [Juvenile hormone III],effect on diapause,[1],terminated diapause
COP(=O)(NC(C)=O)SC (stereo not shown) [acephate],efficacy against GWSS (CDFA nursery shipping protocol list),GWSS,some efficacy
CC(C)N1C(=O)N(c2ccccc2)CS/C1=N\C(C)(C)C [buprofizen],speed of activity against GWSS,GWSS,too slow to be useful for eradication purposes
CNC(=O)Oc1cccc2ccccc12 [carbaryl],efficacy against GWSS (CDFA nursery shipping protocol list),GWSS,some efficacy
CCOP(=S)(OCC)Oc1nc(Cl)c(Cl)cc1Cl [chlorpyrifos],efficacy against GWSS (CDFA nursery shipping protocol list),GWSS,some efficacy
CC1(C)C(C=C(Cl)Cl)C1C(=O)OC(C#N)c1ccc(F)c(Oc2ccccc2)c1 (stereo not shown) [cyfluthrin],efficacy against GWSS (CDFA nursery shipping protocol list),GWSS,some efficacy
CC1(C)[C@H](C(=O)O[C@H](C#N)c2cccc(Oc3ccccc3)c2)[C@@H]1C=C(Br)Br [deltamethrin],efficacy against GWSS (CDFA nursery shipping protocol list),GWSS,some efficacy
CC1(C)C(C(=O)OC(C#N)c2cccc(Oc3ccccc3)c2)C1(C)C (stereo not shown) [fenpropathrin],efficacy against GWSS (CDFA nursery shipping protocol list),GWSS,some efficacy
"CCOC(=O)/C=C(C)/C=C/CC(C)CCCC(C)C (stereo not shown) [hydroprene, ethyl (2E,4E)-3,7,11-trimethyl-2,4-dodecadienoate]",number of dead female Homalodisca coagulata,[2]; [5],3
same,number of dead female Homalodisca coagulata,[2]; [6],0
same,number of dead female Homalodisca coagulata,[2]; treatment C: recommended dose,0
same,number of dead female Homalodisca coagulata,[2]; [7],14
O=[N+]([O-])NC1=NCCN1Cc1ccc(Cl)nc1 [imidaclopid],efficacy against GWSS (CDFA nursery shipping protocol list),GWSS,some efficacy
"C#CCOC(=O)/C=C(C)/C=C/CC(C)CCCC(C)C [kinoprene, 2-propynl (2E,4E)-(7S)-3,7,11-trimethyl-2,4-dodecadienoate]",number of dead female Homalodisca coagulata,[2]; [5],1
same,number of dead female Homalodisca coagulata,[2]; [6],1
same,number of dead female Homalodisca coagulata,[2]; treatment C: recommended dose,0
same,number of dead female Homalodisca coagulata,[2]; [7],0
CNC(=O)Oc1cc(C)c(SC)c(C)c1 [methiocarb],efficacy against GWSS (CDFA nursery shipping protocol list),GWSS,some efficacy
"COC(C)(C)CCC[C@H](C)C/C=C/C(C)=C/C(=O)OC(C)C [methoprene, isopropyl (2E,4E)-11-methoxy-3,7,11-trimethyl-2-2,4-dodecadienoate]",time without egg production post-treatment,H. coagulata; 36 days was the maximum time tested,at least 36 days
same,accumulated fat body in treated females,H. coagulata; dissection of adult females,high amount of accumulated fat body
same,effect on development of brochosomes and ovarioles,H. coagulata; dissection of reproductive system of adult females,inhibits the development of both brochosomes and ovarioles
same,Brochosomes,H. coagulata; [8],1 and 1.5
same,Fat body,H. coagulata; [8],2.5 and 1.5 and 2
same,Ova,H. coagulata; [8],1
same,Ovarioles,H. coagulata; [8],2
same,eggs produced by treated females,"H. coagulata; newly eclosed females, 36 days",no eggs were produced
same,ovariole (reproductive) development on dissection,"H. coagulata; newly eclosed females, 36 days",inhibited
same,egg development and oviposition after treatment,"H. coagulata; newly eclosed females, after 36 days of summer conditions, untreated begin 10-12 days post eclosion",did not develop eggs or oviposit
same,"effect of treating nymphs (mortality, time of development, morphology)",GWSS nymphs,"did not cause mortality, increase or decrease time of development, or induce morphological aberrations"
same,impact on egg parasitoids,[3],no impact
same,oviposition of treated reproductively-active females,GWSS females,oviposited the eggs they contained then stopped
same,reproductive activity of surviving treated females on dissection,[4]; after 30 days,had not begun reproductive activity
same,eggs produced by treated females,"[4]; diapausing females, 30 days",No eggs were produced
same,time treated females remained reproductively inactive,"[4]; diapausing females, topical aqueous solution, summer conditions (32° C., 14:10 L:D), untreated controls oviposit after 10 days",at least 30 days
same,Brochosomes (within Malpigian tubules),[4]; [9],1
same,Fat body,[4]; [9],2
same,Ova,[4]; [9],1
same,Ovarioles,"[4]; treated diapausing females, one value per surviving female, dissected after thirty days, 32° C., 14:10 photoperiod",2
same,number of dead female Homalodisca coagulata,[2]; [5],0
same,number of dead female Homalodisca coagulata,[2]; [6],0
same,number of dead female Homalodisca coagulata,[2]; treatment C: recommended dose,0
same,number of dead female Homalodisca coagulata,[2]; [7],0
O=C(NC(=O)c1c(F)cccc1F)Nc1ccc(OC(F)(F)C(F)OC(F)(F)F)c(Cl)c1 (stereo not shown) [novaluron],speed of activity against GWSS,GWSS,too slow to be useful for eradication purposes
CC1(C)C(C=C(Cl)Cl)C1C(=O)OCc1cccc(Oc2ccccc2)c1 (stereo not shown) [permethrin],efficacy against GWSS (CDFA nursery shipping protocol list),GWSS,some efficacy
